Measurements taken from patent publication US10363239B2, “Method for inhibiting growth of cancer cells” (Pain Therapeutics, Inc., priority 2013, dated 2019).

Tests used:
[1] = tested on: pS2152FLNA, FLNA-associated PTEN and PP2A in primary human pancreatic epithelial cells (HPEC); experiment: pS2152FLNA and FLNA-associated PTEN and PP2A in anti-FLNA immunoprecipitate (Western blotting); format: cell-based; conditions: 0.1-5 nM; 4 days
Procedure: The effect of contact with Compound C0105 on the levels of pS^2152FLNA and FLNA-associated phosphatases, PTEN and PP2A subclasses was determined in MiaPaCa2 and HPECs. Cells were contacted with vehicle and 0.1-5 nM Compound C0105 for 4 days. Cells were washed, solubilized and the cell lysate derived was immunoprecipitated with anti-FLNA. The levels of […] and FLNA-associated phosphatases, PTEN and PP2A subclasses in the anti-FLNA immunoprecipitate were determined by Western blotting. The density of protein bands was quantified by densitometric scan. […] Data are expressed as mean±S.E.M. of ratios (FIGS. 27C, 27E and 27G) and percentage inhibition (FIGS. 27D, 27F and 27H). […] N=4. **p<0.05, *p<0.01 compared to vehicle (open bars). […]
(§1) The cell lysates were diluted 5-fold with immunoprecipitation buffer and immunoprecipitated with anti-FLNA, -Akt, -mTOR and -ERK2 as described previously [Talbot et al., J Clin Inv 122(4):1-23 (2012); Wang et al., J Neurosci 32(29):9773-9784 (2012)]. The levels of FLNA linkages, activated phosphorylated Akt (pS^473 and pT^308), phosphorylated mTOR (pS^2448) and phosphorylated ERK2 (pY/pT) were determined in anti-FLNA, -Akt, -mTOR and -ERK2 immunoprecipitates by Western blotting with appropriate antibodies directed against PTEN, PP2A, K-RAS, ras-GAP (FLNA linkages), pS^473Akt, pT^308Akt, pS^2448mTOR and pY/pT ERK2 (activation of Akt, mTOR and ERK2).

[2] = tested on: glioblastoma (U-87MG) cells; experiment: Cell proliferation by cell-cycling markers Ki67 and PCNA (Western blots); format: cell-based, human; conditions: 0.1-5 nM; 4 days
Procedure: The effect of contact with Compound C0105 on cell proliferation was determined by the levels of cell-cycling markers: Ki67 and PCNA using Western blots in glioblastoma (U-87MG) cells. Cells contacted with vehicle and 0.1-5 nM Compound C0105 for 4 days were collected, washed and solubilized. The resultant cell lysates were size-fractionated on SDS-PAGE and Western blotting to determine the levels of Ki67, PCNA and actin (loading control). The protein bands were quantified using densitometric scanning. […] N=4. *p<0.01 compared to vehicle (open bars).
To study the effect of Compound C0105 on PI3K activity, the cancer and primary normal cells were cultured to approximately 60-70% confluency, serum deprived for 4 hours, briefly washed with PBS and treated with vehicle or 0.1, 0.5, 1 or 5 nM Compound C0105 for 24 hours with in 0.1% FBS-containing culture medium. The cells were then washed with PBS, scraped off and collected by centrifugation. The cell pellets were sonicated in ice-cold immunoprecipitation buffer and protein concentrations measured by the Bradford method. […]
Immunoreactivity was visualized by reaction in ECL Plus chemiluminescent reagent for exactly 5 minutes, followed by immediate exposure of the blot to X-ray film (Z & Z Medical). Bands at the relevant molecular masses of Ki67 and PCNA were quantified by densitometric scan. […]

[3] = tested on: pS2152FLNA, FLNA-associated PTEN and PP2A in primary lung fibroblast cells; experiment: pS2152FLNA and FLNA-associated PTEN and PP2A in anti-FLNA immunoprecipitate (Western blotting); format: cell-based, human; conditions: 0.1-5 nM; 4 days
Procedure: The effect of contact with Compound C0105 on the levels of pS^2152FLNA and FLNA-associated phosphatases, PTEN and PP2A subclasses was determined in primary lung fibroblast cells. Cells were treated with vehicle and 0.1-5 nM Compound C0105 for 4 days. Cells were washed, solubilized and the resultant cell lysate was immunoprecipitated with anti-FLNA. The levels of pS^2152FLNA and FLNA-associated phosphatases, PTEN and PP2A subclasses in the anti-FLNA immunoprecipitate were determined by Western blotting. The density of protein bands was measured by densitometric scanning. […] N=4. **p<0.05, *p<0.01 compared to vehicle (open bars). […]
as §1

[4] = tested on: metastatic (liver) neuroendocrine tumor cells; experiment: Cell proliferation by Ki67 and PCNA (Western blotting); format: cell-based, human; conditions: 1 nM; 4 days
glioblastoma cells = experiment: Glucose deprivation-induced cell death (cell density); format: cell-based, human; conditions: 0.1 or 1 nM; up to 4 days
Procedure: (§2) The effect of Compound C0105 on cell death induced by glucose withdrawal was assessed in glioblastoma and melanoma cells. Cells were grown to >90% confluence, washed and incubated in 0.1% fetal bovine serum (FBS) for 16 hours and incubated in glucose-free 0.1% FBS-containing medium without or with 0.1 or 1 nM C0105 for up to 4 days. Cell density was assessed at the indicated time point. Data are expressed as mean±S.E.M. of percentage change in cell density compared to cells grown in glucose- and 0.1% FBS-containing medium. […] N=5-6.
(§3) In a separate series of studies, the effect of Compound C0105 on glucose dependence was assessed by changes in cell density. The cancer and primary normal cells were grown to >90% confluency. The cells were washed with PBS, incubated in 0.1% fetal bovine serum (FBS) for 16 hours and incubated in glucose-free 0.1% FBS-containing medium for up to 4 days in the presence of vehicle or 1 nM Compound C0105.

melanoma cells = experiment: as above; format: cell-based, human; conditions: 0.1 or 1 nM; up to 4 days
Procedure: as §2, §3

## CN1CCC2(CC1)NCC(=O)N2Cc1ccccc1 [Compound C0105]
[1]
  Phosphatase (PTEN, PP2A) associations with FLNA: no effect
  pS2152FLNA level: no effect
[2]
  Cell proliferation (Ki67 and PCNA levels): reduces cell proliferation
[3]
  FLNA-associated PTEN and PP2A levels: does not affect
  pS2152FLNA level: does not affect
[4]
  Cell proliferation (Ki67 and PCNA levels): Inhibits Proliferation
Glioblastoma cells
  Cell death during glucose withdrawal: reduced the amount of cell death
Melanoma cells
  Cell death during glucose withdrawal: reduced the amount of cell death
